Reference: PubChem BioAssay AID248 (DTP/NCI, 2004)
Where “and” joins values, the source holds several entries; their conditions need not be identical. Equal values may be shown once. Toxic doses and inconclusive results are not listed. Cut-off read from the data, not from the text of the source: active = T/C of 150% or more; inactive = T/C below 125%.

System: L1210 leukemia ip in BDF1 mice, survival T/C
Test: NCI In Vivo Anticancer Drug Screen. Data for tumor model L1210 Leukemia (intraperitoneal) in B6D2F1 (BDF1) mice
Conditions: endpoint: mean survival time, higher = longer survival
Procedure, shortened: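 Each compound was tested against a transplantable tumor grown in mice. The endpoint was survival, with treated animals benchmarked against vehicle controls as a simple ratio.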

[1] = dose: 50.0 mg/kg/injection, schedule: Q01DX001 (ip), vehicle: saline
[2] = dose: 100.0 mg/kg/injection, schedule: Q01DX001 (ip), vehicle: saline
[3] = dose: 100.0 mg/kg/injection, schedule: Q01DX009 (ip), vehicle: Klucel (hydroxypropylcellulose) (HPC)
[4] = dose: 100.0 mg/kg/injection, schedule: Q04DX003 (ip), vehicle: Klucel (hydroxypropylcellulose) (HPC)
[5] = dose: 200.0 mg/kg/injection, schedule: Q01DX009 (ip), vehicle: Klucel (hydroxypropylcellulose) (HPC)
[6] = dose: 200.0 mg/kg/injection, schedule: Q04DX003 (ip), vehicle: Klucel (hydroxypropylcellulose) (HPC)
[7] = dose: 400.0 mg/kg/injection, schedule: Q01DX009 (ip), vehicle: Klucel (hydroxypropylcellulose) (HPC)
[8] = dose: 400.0 mg/kg/injection, schedule: Q04DX003 (ip), vehicle: Klucel (hydroxypropylcellulose) (HPC)
[9] = dose: 100.0 mg/kg/injection, schedule: Q04DX002 (ip), vehicle: saline with Tween-80
[10] = dose: 200.0 mg/kg/injection, schedule: Q04DX002 (ip), vehicle: saline with Tween-80
[11] = dose: 400.0 mg/kg/injection, schedule: Q04DX002 (ip), vehicle: saline with Tween-80
[12] = dose: 75.0 mg/kg/injection, schedule: Q04DX003 (ip), vehicle: Klucel (hydroxypropylcellulose) (HPC)
[13] = dose: 150.0 mg/kg/injection, schedule: Q04DX003 (ip), vehicle: Klucel (hydroxypropylcellulose) (HPC)
[14] = dose: 300.0 mg/kg/injection, schedule: Q04DX003 (ip), vehicle: Klucel (hydroxypropylcellulose) (HPC)
[15] = dose: 200.0 mg/kg/injection, schedule: Q01DX001 (ip), vehicle: saline

Measured: T/C

NC(=Nc1ccccc1)c1ccc(Cl)cc1
inactive: dose: 25.0 mg/kg/injection, schedule: Q04DX002 (ip), vehicle: Klucel (hydroxypropylcellulose) (HPC) 93 % of control | dose: 50.0 mg/kg/injection, schedule: Q04DX002 (ip), vehicle: Klucel (hydroxypropylcellulose) (HPC) 97 % of control | dose: 100.0 mg/kg/injection, schedule: Q04DX002 (ip), vehicle: Klucel (hydroxypropylcellulose) (HPC) 101 % of control and 115 % of control

O=S(=O)(CCl)OCCCCOS(=O)(=O)CCl
inactive: dose: 31.5 mg/kg/injection, schedule: Q01DX009 (ip), vehicle: saline 108 % of control and 109 % of control | dose: 31.5 mg/kg/injection, schedule: Q01DX015 (ip), vehicle: saline 112 % of control | [1] 100 % of control | dose: 54.0 mg/kg/injection, schedule: Q01DX009 (ip), vehicle: saline 120 % of control and 124 % of control | dose: 90.0 mg/kg/injection, schedule: Q01DX009 (ip), vehicle: saline 124 % of control | dose: 90.0 mg/kg/injection, schedule: Q01DX015 (ip), vehicle: saline 124 % of control | [2] 111 % of control | dose: 100.0 mg/kg/injection, schedule: Q01DX015 (ip), vehicle: saline 108 % of control | dose: 133.0 mg/kg/injection, schedule: Q01DX001 (ip), vehicle: saline 104 % of control and 107 % of control and 121 % of control | dose: 150.0 mg/kg/injection, schedule: Q01DX009 (ip), vehicle: saline 104 % of control | dose: 200.0 mg/kg/injection, schedule: Q01DX015 (ip), vehicle: saline 97 % of control | dose: 300.0 mg/kg/injection, schedule: Q01DX001 (ip), vehicle: saline 104 % of control and 121 % of control

COc1ccc(Cl)cc1NC(=O)CC(C)=O
inactive: [3] 101 % of control | [4] 97 % of control | [5] 101 % of control | [6] 99 % of control | [7] 95 % of control | [8] 94 % of control

COc1cccc(CCOC(C)=O)c1
inactive: [9] 94 % of control | [10] 108 % of control | [11] 97 % of control

COC(=O)CCNc1c(OC)ccc2ccccc12
inactive: [3] 101 % of control | [7] 98 % of control

O=C(O)/C=C/c1ccc(O)cc1
inactive: [12] 97 % of control | [13] 101 % of control | [14] 109 % of control

CC1=CC2(C)Cc3cc(C)cc(C)c3S(=O)(=O)C2C(C(=O)O)=C1 (stereo unspecified)
inactive: dose: 50.0 mg/kg/injection, schedule: Q01DX001 (ip), vehicle: Klucel (hydroxypropylcellulose) (HPC) 102 % of control | dose: 100.0 mg/kg/injection, schedule: Q01DX001 (ip), vehicle: Klucel (hydroxypropylcellulose) (HPC) 101 % of control | dose: 200.0 mg/kg/injection, schedule: Q01DX001 (ip), vehicle: Klucel (hydroxypropylcellulose) (HPC) 98 % of control | dose: 400.0 mg/kg/injection, schedule: Q01DX001 (ip), vehicle: Klucel (hydroxypropylcellulose) (HPC) 96 % of control

O=[N+]([O-])c1ccc(O)c(CN(Cc2ccccc2)Cc2c(O)ccc3ccccc23)c1
inactive: dose: 100.0 mg/kg/injection, schedule: Q01DX001 (ip), vehicle: carboxymethylcellulose (CMC) 98 % of control | dose: 200.0 mg/kg/injection, schedule: Q01DX001 (ip), vehicle: carboxymethylcellulose (CMC) 93 % of control | dose: 400.0 mg/kg/injection, schedule: Q01DX001 (ip), vehicle: carboxymethylcellulose (CMC) 96 % of control

O=C(CC(CC(=O)c1ccccc1)c1ccco1)c1ccccc1
inactive: [3] 90 % of control | [4] 94 % of control | [5] 94 % of control | [6] 101 % of control | [7] 86 % of control | [8] 92 % of control

COC(=O)CCCCC(=O)OC
inactive: dose: 100.0 mg/kg/injection, schedule: Q01DX009 (ip), vehicle: saline with Tween-80 103 % of control | dose: 200.0 mg/kg/injection, schedule: Q01DX009 (ip), vehicle: saline with Tween-80 102 % of control | dose: 400.0 mg/kg/injection, schedule: Q01DX009 (ip), vehicle: saline with Tween-80 102 % of control

CC(=O)OC1=CC(=O)C(OC(C)=O)=C(c2c(C)cc(C)c(Br)c2C)C1=O
inactive: [1] 91 % of control | [2] 95 % of control | [15] 101 % of control

NC(=O)NCc1ccc(CNC(N)=O)cc1
inactive: [9] 98 % of control | [10] 98 % of control | [11] 115 % of control

Brc1ccccc1N=Nc1ccccc1Br
inactive: dose: 100.0 mg/kg/injection, schedule: Q04DX003 (ip), vehicle: saline with Tween-80 92 % of control | dose: 200.0 mg/kg/injection, schedule: Q04DX003 (ip), vehicle: saline with Tween-80 91 % of control | dose: 400.0 mg/kg/injection, schedule: Q04DX003 (ip), vehicle: saline with Tween-80 107 % of control

COC(=O)NS(=O)(=O)/C=C/N1CCCC1=O
inactive: [12] 96 % of control | [13] 100 % of control | [14] 100 % of control

C1CCC(N2CC3CCCC2O3)CC1 (stereo unspecified)
inactive: [1] 101 % of control | [2] 97 % of control | [15] 95 % of control

CCOC(CN=Cc1cc(C)c2[nH]c3ccc(OC)cc3c2c1C)OCC
inactive: dose: 100.0 mg/kg/injection, schedule: Q01DX001 (ip), vehicle: other 96 % of control | [4] 98 % of control | dose: 200.0 mg/kg/injection, schedule: Q01DX001 (ip), vehicle: other 102 % of control | [6] 96 % of control | dose: 400.0 mg/kg/injection, schedule: Q01DX001 (ip), vehicle: other 98 % of control | [8] 96 % of control

N#Cc1cn(-c2cccc(Cl)c2)c2ncccc12
inactive: dose: 25.0 mg/kg/injection, schedule: Q01DX001 (ip), vehicle: saline 103 % of control | [1] 100 % of control | [2] 103 % of control | [15] 87 % of control | dose: 400.0 mg/kg/injection, schedule: Q01DX001 (ip), vehicle: saline 91 % of control
